“And” between values parts separate entries of the source, which are not always exact repeats. Identical values can stand only once. Like-named read-outs stand apart in the source and are kept apart here.
Tests used:
[1] = design: method as in Smeltz et al. [60]; conditions: ref Smeltz et al. [60], cited from earlier work; for fup (fraction unbound in plasma): Human plasma; for fub (fraction unbound in blood): Human
[2] = tested on: human hepatocytes; design: method as in Crizer et al. [59]; conditions: ref Crizer et al. [59]; cited from earlier work
[3] = Plasma dosimetry of PFHxSA and PFHxS by targeted LC/MS/MS; format: in vivo, rat; conditions: for concentration at 24 h: Sprague Dawley (Crl:CD(SD)), rat, oral
From the text: The plasma and liver samples for this investigation were provided by Mutlu et al.. The study design, including detailed descriptions of animal handling, procedures for dosing, clinical observations, termination, and collection of tissues, is reported elsewhere and is consistent with the ARRIVE guidelines. Briefly, male and female Sprague Dawley (SD) rats (Crl:CD(SD)) (n = 48/sex, 96 total) were purchased from Charles River Laboratory (Raleigh, NC, USA) and allowed to acclimate for ≥5 days before initial dosing. Rats were 8–10 weeks old at the time of exposure. PFHxSA dosing solutions in corn oil were prepared on Day 0 and used over the course of the study. Rats of both sexes (n = 5/sex, dose, and time point, plus eight vehicle controls per sex) were dosed by oral gavage (5 mL/kg body weight) once daily for five days. […] The formulation concentrations decreased from 100 mg/kg/day at half-log10 intervals until the lowest dose level, which was a full log10 interval below the next higher dose, giving eight dose levels (0.01 to 100 mg/kg/day or 0.025 µmol/kg/day to 250 µmol/kg/day) in addition to vehicle controls. Doses were administered in randomized order within ± 1 h on each day of dosing. […] Rats were euthanized 24 h after the last dose. Blood was collected via cardiac puncture with tripotassium ethylene diamine tetraacetic acid (K3EDTA) as an anti-coagulant and centrifuged to collect cell-free plasma. Liver was collected and flash-frozen in liquid nitrogen. Liver, plasma, and dosing formulation samples were frozen at the USEPA Center for Computational Toxicology and Exposure (CCTE), Durham, NC, USA. Tissue samples (plasma and liver, n = 96 each) were stored at ≤−70 °C prior to extraction; dosing formulation samples (n = 9) were stored at −20 °C.
Detailed information on solvents and standards used for targeted LC/MS/MS of PFHxSA and PFHxS can be found in SI Text S1 and SI Table S1. Plasma and liver preparations were modified from Conley et al.. Briefly, aliquots of plasma (25 µL) and liver (~10 mg) were spiked with PFOSA as an internal standard, as no isotope-labeled PFHxSA was available. Sample batches included up to 96 samples along with an MB, CCV, and LCS for QC. Commercial plasma (mixed-sex SD rat plasma) and liver (mixed-sex SD rat) were obtained from BioIVT (Westbury, NY, USA). Cold acetonitrile (ACN) with 0.1 M formic acid was used to precipitate proteins. Liver and plasma samples were prepared similarly, except that the livers were homogenized after solvent addition. Plasma samples were vortexed to mix before being chilled at −20 °C, after which samples were centrifuged at 5 °C and 10,000× g. Liver samples were chilled at −80 °C, then homogenized using an Omni International (Kennesaw, GA, USA) Bead Ruptor 24. Liver homogenates were centrifuged at 26,000× g and 5 °C. Supernatants from the extraction of both matrices were removed and stored at −20 °C until analysis. Refer to SI Text S4 for additional experimental details and information on calibration and QC parameters for quantitation of PFHxSA.
Targeted LC/MS/MS of PFHxSA was performed on a Sciex 4000 QTRAP LC/MS/MS system operated in negative ESI mode with MRM scanning. A Restek (Bellefonte, PA, USA) Raptor Polar X (100 mm × 2 mm, 2.7 µm) column was used for liquid chromatography. Isocratic elution occurred over 10 min with a 30:70 ratio of mobile phase A (10 mM ammonium formate): mobile phase B (60:40 ACN: methanol). Both mobile phases included 0.05% formic acid. The LOQs for PFHxSA were 0.100 µM in plasma and 0.351 µM in liver. Additional details of the instrument method parameters for targeted analysis of PFHxSA are provided in SI Table S5. The MRM transitions for the PFHxSA method are provided in SI Table S6. […]

For `NS(=O)(=O)C(F)(F)C(F)(F)C(F)(F)C(F)(F)C(F)(F)C(F)(F)F` [PFHxSA, Perfluorohexanesulfonamide], the “fup (fraction unbound in plasma)” value [1] is listed as 0.0004 ^1, the “fub (fraction unbound in blood)” value [1] is listed as 0.0007 ^1 and the “Clhep (hepatic clearance)” value [2] is listed as 0 ^2 L/h. The “Female PFHxSA plasma concentrations versus male plasma” value ([3]; at 30 and 100 mg/kg/day) was “at least two-fold higher”, the “Female plasma PFHxSA levels higher than males, on average” value ([3]; doses of 10 mg/kg/day and up) was 2.9 fold and the concentration at 24 h ([3]; female, plasma, 0.01 mg/kg/day, PFHxSA 0.01 mg/kg/day oral 5 days, female rats, mean ± SD, one sample estimated as half the LOQ, read-out: PFHxSA Female Plasma Conc.) was 0.117 ± 0.043 µM. For the same compound, the concentration at 24 h ([3]; female, plasma, 0.1 mg/kg/day, PFHxSA 0.1 mg/kg/day oral 5 days, female rats, mean ± SD, read-out: PFHxSA Female Plasma Conc.) was 1.1 ± 0.11 µM, the concentration at 24 h ([3]; female, plasma, 0.1 mg/kg/day, PFHxSA 0.1 mg/kg/day oral 5 days, female, individual rats, read-out: PFHxSA Female Plasma Conc.) was 1.03 µM and 410 ng/mL and the concentration at 24 h ([3]; female, plasma, 0.3 mg/kg/day, PFHxSA 0.3 mg/kg/day oral 5 days, female rats, mean ± SD, read-out: PFHxSA Female Plasma Conc.) was 4.34 ± 1.6 µM. For the same compound, the concentration at 24 h ([3]; female, plasma, 1 mg/kg/day, PFHxSA 1 mg/kg/day oral 5 days, female rats, mean ± SD, read-out: PFHxSA Female Plasma Conc.) was 21.3 ± 9.1 µM, the concentration at 24 h ([3]; female, plasma, 3 mg/kg/day, PFHxSA 3 mg/kg/day oral 5 days, female rats, mean ± SD, read-out: PFHxSA Female Plasma Conc.) was 37.1 ± 13 µM and the concentration at 24 h ([3]; female, plasma, 10 mg/kg/day, PFHxSA 10 mg/kg/day oral 5 days, female rats, mean ± SD, read-out: PFHxSA Female Plasma Conc.) was 64.9 ± 17 µM. For the same compound, the concentration at 24 h ([3]; female, plasma, 10 mg/kg/day, PFHxSA 10 mg/kg/day oral 5 days, female, individual rats, read-out: PFHxSA Female Plasma Conc.) was 19600 ng/mL and 49 µM, the concentration at 24 h ([3]; female, plasma, 30 mg/kg/day, PFHxSA 30 mg/kg/day oral 5 days, female rats, mean ± SD, read-out: PFHxSA Female Plasma Conc.) was 179 ± 66 µM and the concentration at 24 h ([3]; female, plasma, 100 mg/kg/day, PFHxSA 100 mg/kg/day oral 5 days, female, individual rats, read-out: PFHxSA Female Plasma Conc.) was 111000 ng/mL and 278 µM. For the same compound, the concentration at 24 h ([3]; male, plasma, 0.01 mg/kg/day, PFHxSA 0.01 mg/kg/day oral 5 days, male rats, single rat above the LOQ, read-out: PFHxSA Male Plasma Conc.) was 0.102 µM, the concentration at 24 h ([3]; male, plasma, 0.01 mg/kg/day, PFHxSA 0.01 mg/kg/day oral 5 days, male, individual rats, read-out: PFHxSA Male Plasma Conc.) was 40.6 ng/mL and 102 nM and the concentration at 24 h ([3]; male, plasma, 0.1 mg/kg/day, PFHxSA 0.1 mg/kg/day oral 5 days, male rats, mean ± SD, read-out: PFHxSA Male Plasma Conc.) was 0.796 ± 0.28 µM. The concentration at 24 h ([3]; male, plasma, 0.3 mg/kg/day, PFHxSA 0.3 mg/kg/day oral 5 days, male rats, mean ± SD, read-out: PFHxSA Male Plasma Conc.) was 4.26 ± 0.48 µM, the concentration at 24 h ([3]; male, plasma, 0.3 mg/kg/day, PFHxSA 0.3 mg/kg/day oral 5 days, male, individual rats, read-out: PFHxSA Male Plasma Conc.) was 1640 ng/mL and 3.49 µM and the concentration at 24 h ([3]; male, plasma, 1 mg/kg/day, PFHxSA 1 mg/kg/day oral 5 days, male rats, mean ± SD, read-out: PFHxSA Male Plasma Conc.) was 11.4 ± 2.2 µM. For the same compound, the concentration at 24 h ([3]; male, plasma, 1 mg/kg/day, PFHxSA 1 mg/kg/day oral 5 days, male, individual rats, read-out: PFHxSA Male Plasma Conc.) was 4950 ng/mL and 12.4 µM, the concentration at 24 h ([3]; male, plasma, 3 mg/kg/day, PFHxSA 3 mg/kg/day oral 5 days, male rats, mean ± SD, read-out: PFHxSA Male Plasma Conc.) was 27.1 ± 8 µM and the concentration at 24 h ([3]; male, plasma, 3 mg/kg/day, PFHxSA 3 mg/kg/day oral 5 days, male, individual rats, read-out: PFHxSA Male Plasma Conc.) was 9190 ng/mL and 23 µM. For the same compound, the concentration at 24 h ([3]; male, plasma, 10 mg/kg/day, PFHxSA 10 mg/kg/day oral 5 days, male rats, mean ± SD, read-out: PFHxSA Male Plasma Conc.) was 56.8 ± 14 µM, the concentration at 24 h ([3]; male, plasma, 10 mg/kg/day, PFHxSA 10 mg/kg/day oral 5 days, male, individual rats, read-out: PFHxSA Male Plasma Conc.) was 17700 ng/mL and 44.3 µM and the concentration at 24 h ([3]; male, plasma, 30 mg/kg/day, PFHxSA 30 mg/kg/day oral 5 days, male rats, mean ± SD, read-out: PFHxSA Male Plasma Conc.) was 81.2 µM. The concentration at 24 h ([3]; male, plasma, 30 mg/kg/day, PFHxSA 30 mg/kg/day oral 5 days, male, individual rats, read-out: PFHxSA Male Plasma Conc.) was 27700 ng/mL and 69.4 µM, the concentration at 24 h ([3]; male, plasma, 100 mg/kg/day, PFHxSA 100 mg/kg/day oral 5 days, male rats, average, read-out: PFHxSA Male Plasma Conc.) was 62.1 µM and the concentration at 24 h ([3]; male, plasma, 100 mg/kg/day, PFHxSA 100 mg/kg/day oral 5 days, male, individual rats, read-out: PFHxSA Male Plasma Conc.) was 29500 ng/mL and 74 µM.
In the case of `O=S(=O)(O)C(F)(F)C(F)(F)C(F)(F)C(F)(F)C(F)(F)C(F)(F)F` [PFHxS, perfluorohexane sulfonic acid], the “fup (fraction unbound in plasma)” value [1] is listed as 0.0009 ^1, the “fub (fraction unbound in blood)” value [1] is listed as 0.0016 ^1 and the “Clhep (hepatic clearance)” value [2] is listed as 0 ^2 L/h. For the same compound, the “Male PFHxS plasma concentrations higher than female at the same dose level” value ([3]; across the dose range) was 4–10 times, the “Female level of PFHxS lower than males, on average” value ([3]; doses of 10 mg/kg/day and up, plasma) was 5.3 fold and the “PFHxS lower than PFHxSA in female plasma, on average” value ([3]; female rats, after oral PFHxSA) was 5.3 fold. For the same compound, the “PFHxS plasma concentrations higher than coincident PFHxSA plasma levels” value ([3]; male rats, PFHxSA 30 and 100 mg/kg/day) was 1.6- to 6 fold, the concentration at 24 h ([3]; male, plasma, PFHxSA 10 mg/kg/day oral 5 days, male rats, mean ± SD, read-out: PFHxS Male Plasma Conc.) was 76.9 µM and the concentration at 24 h ([3]; male, plasma, PFHxSA 30 mg/kg/day oral 5 days, male rats, mean ± SD, read-out: PFHxS Male Plasma Conc.) was 136 µM. For the same compound, the concentration at 24 h ([3]; male, plasma, PFHxSA 100 mg/kg/day oral 5 days, male rats, mean ± SD, read-out: PFHxS Male Plasma Conc.) was 396 µM and the “Male PFHxS/PFHxSA concentration ratios higher than female ratios” value ([3]; plasma and liver) was “approximately 10 fold”.
